What all share (assay type): in vivo
Test [1] deals with rats with surgically-induced osteoarthritis (OA). As to the kind of experiment: Osteoarthritis rat model: knee joint thickness. The following applies: 200 mg/kg oral (diclofenac 2 mg/kg s.c.); vs OA control group. The method, then:
(§1) The osteoarthritis-improving effect of the single or mixed formula of the pomegranate concentrate powder (PCP), the eucommia bark water extract powder (EC) and the achyranthis radix water extract powder (AR) was evaluated. As the representative osteoarthritis (OA) experimental animal model, rats with osteoarthritis (OA) induced by anterior cruciate ligament transaction and partial medial meniscectomy were used [Kim et al., 2012; Kang et al., 2014a; Moon et al., 2014; Choi et al., 2015]. […] In addition, the change in articular cartilage thickness and the number of cyclooxygenase (COX)-2- and tumor necrosis factor (TNF)-α-immunopositive cells in the tibial articular cartilage was monitored [Moore et al. 2005; Kim et al., 2012; Kang et al., 2014a; Choi et al., 2015]. Through this experiment, the anti-inflammatory effect and cartilage-regenerating effect of the pomegranate concentrate powder, the eucommia bark extract and the achyranthis radix extract were evaluated.
(§2) An adequate amount of PCP, EC or AR was dissolved in sterilized distilled water and orally administered at a dosage of 5 mL/kg from 7 days after the osteoarthritis (OA) surgery once a day for 28 days. That is to say, each of the single formulas of PCP, EC and AR and the mixed formulas of PCP and EC:AR (1:1, 1:2, 1:4, 1:6, 1:8, 2:1, 4:1, 6:1 and 8:1) was orally administered at a dosage of 200 mg/kg for 28 days. […]

The next test deals with collagen type II mRNA. Briefly: Osteoarthritis rat model: collagen type II mRNA expression in articular cartilage and joint capsule. The following applies: OA rats, 200 mg/kg oral 28 days (diclofenac 2 mg/kg s.c.), mean ± SD. The method, then: as §1
An adequate amount of PCP, EC or AR was dissolved in sterilized distilled water and orally administered at a dosage of 5 mL/kg from 7 days after the osteoarthritis (OA) surgery once a day for 28 days. That is to say, each of the single formulas of PCP, EC and AR and the mixed formulas of PCP and EC:AR (1:1, 1:2, 1:4, 1:6, 1:8, 2:1, 4:1, 6:1 and 8:1) was orally administered at a dosage of 200 mg/kg for 28 days. For the sham surgery (sham) and osteoarthritis (OA) control groups, only sterilized distilled water was orally administered instead of the test substances. 2 mg of diclofenac sodium (Wako Pure Chemical Ind. Ltd., Osaka, Japan) dissolved in 5 mL of sterilized physiological saline was subcutaneously administered into the back skin at a dosage of 5 mL/kg (2 mg/kg) from 7 days after the osteoarthritis (OA) surgery once a day for 28 days. The administration dosage was set to 2,000 mg/60 kg×6=200 mg/kg, corresponding to 6 times the expected dosage for human (2,000 mg) in consideration of the body surface area of the rat. […]

The test system of test [2] is chondrogenesis-related mRNAs (collagen type II, SOX9 and aggrecan). Briefly: Osteoarthritis rat model: chondrogenesis-related mRNA expression. The following applies: diclofenac subcutaneous. The method, then:
as §1, §2

For test [3], the system named is rats with surgically-induced osteoarthritis (OA). As to the kind of experiment: Osteoarthritis rat model: BrdU-immunopositive cells (cell proliferation). The following applies: vs OA control group. Here is the method:
as §1, §2

Regarding `O=C(O)Cc1ccccc1Nc1c(Cl)cccc1Cl` [Diclofenac, diclofenac sodium], in test [1], the knee joint thickness entry was “significant (p<0.01 or p<0.05) decrease in knee joint thickness”. In the test on collagen type II mRNA, the “Collagen type II mRNA expressions, Femur AC” value was 0.69 ± 0.10^ab and the “Collagen type II mRNA expressions, Tibia AC” value is listed as 0.64 ± 0.11^ij. In addition, the “Collagen type II mRNA expressions, SM” value in the test on collagen type II mRNA (SM not defined, text speaks of joint capsule) was 2.74 ± 0.95^ij. Besides, in test [2], the “expression of collagen type II, SOX9 and aggrecan mRNAs in the femoral and tibial articular cartilage” value is given as “increased expression”. Also, the “number of BrdU-immunopositive cells in the joint capsule” value in test [3] is “decrease in the number of BrdU-immunopositive cells in the joint capsule”.

The record behind these values is patent US10610555B2, “Method for alleviating osteoarthritis by using composite (HL-Joint 100) of achyranthes bidentata, eucommin ulmoides oliver and pomegranate extracts, which has antiinflammatory effect caused by COX2 and PGE2 inhibition, cartilage protective effect caused by MMP-2 and -9 inhibition and cartilage …” (HLSCIENCE CO., LTD., priority 2015, dated 2020).
